According to patent publication US11390609B2, “Rho-associated protein kinase inhibitor, pharmaceutical composition comprising same, and preparation method and use thereof” (BEIJING TIDE PHARMACEUTICAL CO., LTD., priority 2017, dated 2022):

Key:
ROCK1 = ROCK1 (Homo sapiens (Human), UniProt Q13464); experiment: ROCK1 kinase IC50 assay (biological test method similar to the ROCK2 assay); type: biochemical
Outline: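 HTRF KinEASE-STK S2 assay with the STK-S2 biotinylated substrate and ATP, at 5× working solutions of 1.5 µM each. Kinase reaction with 9-point compound dilutions ran 2 h at room temperature, followed by 1 h streptavidin-XL665/Cryptate detection. The 665/615 nm ratio was normalised to no-compound and no-kinase wells, and IC50 was obtained by curve fitting.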

ROCK2 = ROCK2 (Homo sapiens, UniProt O75116); experiment: ROCK2 kinase IC50 assay (CISBIO HTRF KinEASE-STK S2 kit); type: biochemical; settings: incubated at room temperature for 2 hours
Outline: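 HTRF KinEASE-STK S2 format with recombinant ROCK2 (1.4 ng per well), STK-S2 substrate and ATP from 5× working solutions of 1.5 μM each, run 2 h at room temperature. Nine-point dilutions from 10000 nM top concentration; 665/615 nm emission ratio normalised to no-compound and no-kinase controls, curve-fitted for IC50.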

ROCK1, sequence (Q13464 whole entry, species assumed): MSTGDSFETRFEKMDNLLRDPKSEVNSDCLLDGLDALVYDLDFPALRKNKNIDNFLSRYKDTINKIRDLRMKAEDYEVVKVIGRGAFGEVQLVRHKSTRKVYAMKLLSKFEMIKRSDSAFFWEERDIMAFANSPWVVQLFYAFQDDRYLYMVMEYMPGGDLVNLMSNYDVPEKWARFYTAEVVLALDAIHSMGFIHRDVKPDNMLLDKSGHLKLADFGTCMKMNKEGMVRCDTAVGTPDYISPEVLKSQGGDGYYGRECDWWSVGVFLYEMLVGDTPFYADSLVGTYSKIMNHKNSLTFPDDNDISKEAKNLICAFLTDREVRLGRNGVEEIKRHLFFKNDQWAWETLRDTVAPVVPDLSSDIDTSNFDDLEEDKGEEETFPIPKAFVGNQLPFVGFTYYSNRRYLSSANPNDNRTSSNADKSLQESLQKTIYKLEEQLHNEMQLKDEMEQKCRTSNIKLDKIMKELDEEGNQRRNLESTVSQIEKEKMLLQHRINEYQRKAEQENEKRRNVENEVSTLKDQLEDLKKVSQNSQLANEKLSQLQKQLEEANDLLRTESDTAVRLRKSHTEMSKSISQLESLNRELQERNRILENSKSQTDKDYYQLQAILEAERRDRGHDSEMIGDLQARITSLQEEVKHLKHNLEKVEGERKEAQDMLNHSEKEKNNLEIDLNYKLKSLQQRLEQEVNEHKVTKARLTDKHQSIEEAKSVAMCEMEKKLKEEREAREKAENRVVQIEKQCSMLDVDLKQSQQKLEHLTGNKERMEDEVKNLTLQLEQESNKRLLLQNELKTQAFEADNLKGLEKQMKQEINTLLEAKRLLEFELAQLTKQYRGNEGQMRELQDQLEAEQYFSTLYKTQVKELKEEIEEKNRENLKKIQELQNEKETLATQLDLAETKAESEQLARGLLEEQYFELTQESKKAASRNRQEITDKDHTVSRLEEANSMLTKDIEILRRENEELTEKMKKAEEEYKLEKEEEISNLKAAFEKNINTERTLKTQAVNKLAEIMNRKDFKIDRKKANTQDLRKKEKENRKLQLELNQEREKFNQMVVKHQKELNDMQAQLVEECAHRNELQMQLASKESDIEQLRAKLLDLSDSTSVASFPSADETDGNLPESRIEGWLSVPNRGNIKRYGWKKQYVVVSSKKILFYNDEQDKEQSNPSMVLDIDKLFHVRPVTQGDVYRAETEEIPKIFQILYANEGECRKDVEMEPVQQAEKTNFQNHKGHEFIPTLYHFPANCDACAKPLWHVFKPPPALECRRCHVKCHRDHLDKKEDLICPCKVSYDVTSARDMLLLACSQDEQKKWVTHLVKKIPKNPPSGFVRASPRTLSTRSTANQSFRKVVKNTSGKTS

SMILES	IC50 (ROCK1) [nM]	IC50 (ROCK2) [nM]
Cn1c(C(=O)N2CC(F)(F)C2)cc2ccc(-c3nc4c(c(Nc5ccc(-c6cn[nH]c6)cc5)n3)CCC4)cc21 [TDI01960, (6-(4-((4-(1H-pyrazol-4-yl)phenyl)amino)-6,7-dihydro-5H-cyclopenta[d]pyrimidin-2-yl)-1-methyl-1H-indol-2-yl)(3,3-difluoroazetidin-1-yl)methanone]	> 10000	50
O=C(C1CC(F)(F)C1)N1Cc2ccc(-c3ncc(F)c(Nc4ccc5[nH]ncc5c4)n3)cc2C1 [TDI01589, (5-(4-((1H-indazol-5-yl)amino)-5-fluoropyrimidin-2-yl)isoindolin-2-yl)(3,3-difluorocyclobutyl)methnone]	> 10000	39
Cn1c(C(=O)N2CC(F)(F)C2)cc2ccc(-c3nccc(Nc4ccc5[nH]ncc5c4)n3)cc21 [TDI01906, (6-(4-((1H-indazol-5-yl)amino)pyrimidin-2-yl)-1-methyl-1H-indol-2-yl)(3,3-difluoroazetidin-1-yl)methanone]	> 10000	49
CC(C)NC(=O)c1cc2ccc(-c3nc(Nc4ccc(-c5cn[nH]c5)cc4)c4occc4n3)cc2[nH]1 [TDI01864, 6-(4-((4-(1H-pyrazol-4-yl)phenyl)ami-no)furo[3,2-d]pyrimidin-2-yl)-N-isopropyl-1H-indole-2-carboxamide]	3000	30
CN(C)C(=O)N1Cc2ccc(-c3nc(Nc4ccc(-c5cn[nH]c5)cc4)c4occc4n3)cc2C1 [TDI01974, 5-(4-((4-(1H-pyrazol-4-yl)phenyl)amino)furo[3,2-d]pyrimidin-2-yl)-N,N-dimethylisoindoline-2-carboxamide]	> 10000	186
CC1(C(=O)N2Cc3ccc(-c4ncc(F)c(Nc5ccc(-c6cn[nH]c6)cc5)n4)cc3C2)CC(F)(F)C1 [TDI01628, (5-(4-((4-(1H-pyrazol-4-yl)phenyl)amino)-5-fluoropyrimidin-2-yl)isoindolin-2-yl)(3,3-difluoro-1-methylcyclobutyl) methanone]	> 10000	28
Cc1[nH]ncc1-c1ccc(Nc2ccnc(-c3ccc4cc(C(=O)N5CC(F)(F)C5)n(C)c4c3)n2)cc1 [TDI01955, (3,3-difluoroazetidin-1-yl)(1-methyl-6-(4-((4-(5-methyl-1H-pyrazol-4-yl)phenyl)amino)pyrimidin-2-yl)-1H-indol-2-yl)methanone]	> 10000	33
CC(C)(C)OC(=O)N1Cc2ccc(-c3nccc(Nc4ccc(-c5cn[nH]c5)cc4)n3)cc2C1 [TDI01557B, tert-butyl 5-(4-((4-(1H-pyrazol-4-yl)phenyl)amino)pyrimidin-2-yl)isoindoline-2-carboxylate]	> 10000	49
O=C(c1cc2ccc(-c3nccc(Nc4ccc(-c5cn[nH]c5)cc4)n3)cc2[nH]1)N1C[C@@H](F)[C@@H](F)C1 [TDI01477, (6-(4-((4-(1H-pyrazol-4-yl)phenyl)amino)pyrimidin-2-yl)-1H-indol-2-yl)((3S,4R)-3,4-difluoropyrrolidin-1-yl)methanone]	1130	47
c1ccc2sc(-c3cc4ccc(-c5nccc(Nc6ccc7[nH]ncc7c6)n5)cc4[nH]3)nc2c1 [TDI01881, N-(2-(2-(benzo[d]thiazol-2-yl)-1H-indol-6-yl)pyrimidin-4-yl)-1H-indazol-5-amine]	> 10000	161
O=C(c1cc2ccc(-c3nccc(Nc4ccc(-c5cn[nH]c5)cc4)n3)cc2[nH]1)N1CCC2(C1)CC2(F)F (centres unmarked) [TDI01486, (6-(4-((4-(1H-pyrazol-4-yl)phenyl)amino)pyrimidin-2-yl)-1H-indol-2-yl)(1,1-difluoro-5-azaspiro[2.4]heptan-5-yl)methanone]	3000	185
O=C(Nc1ccnnc1)c1cc2ccc(-c3ncc(Cl)c(Nc4ccc5[nH]ncc5c4)n3)cc2[nH]1 [TDI01844, 6-(4-((1H-indazol-5-yl)amino)-5-chloropyrimidin-2-yl)-N-(pyridazin-4-yl)-1H-indole-2-carboxamide]	> 10000	370
O=C(c1cc2ccc(-c3nccc(Nc4ccc(-c5cn[nH]c5)cc4)n3)cc2[nH]1)N1CCC(F)(F)CC1 [TDI01485, (6-(4-((4-(1H-pyrazol-4-yl)phenyl)amino)pyrimidin-2-yl)-1H-indol-2-yl)(4,4-difluoropiperidin-1-yl)methanone]	3990	276
CN1CCC[C@H]1C(=O)N1Cc2ccc(-c3nccc(Nc4ccc(-c5cn[nH]c5)cc4)n3)cc2C1 [TDI01968A, 5-(4-((4-(1H-pyrazol-4-yl)phenyl)amino)pyrimidin-2-yl)-2-(methyl-L-prolyl)isoindoline]	> 10000	296
CC(=O)N1Cc2nc(-c3ccc4c(c3)CN(C(=O)C3CC(F)(F)C3)C4)nc(Nc3ccc(-c4cn[nH]c4)cc3)c2C1 [TDI01587, 1-(4-((4-(1H-pyrazol-4-yl)phenyl)amino)-2-(2-(3,3-difluorocyclobutane-1-carbonyl)isoindolin-5-yl)-5,7-dihydro-6H-pyrrolo[3,4-d]pyrimidin-6-yl)ethan-1-one]	> 10000	25

Next, values leading:

IC50 (ROCK1) [nM]	IC50 (ROCK2) [nM]	SMILES
> 10000	131	O=C(N1CCc2cc(-c3nccc(Nc4ccc(-c5cn[nH]c5)cc4)n3)ccc2C1)N1CC(F)(F)C1 [TDI01959, (6-(4-((4-(1H-pyrazol-4-yl)phenyl)amino)pyrimidin-2-yl)-3,4-dihydroisoquinolin-2(1H)-yl)(3,3-difluoroazetidin-1-yl)methanone]
1470	26	O=C(c1cc2ccc(-c3nccc(Nc4ccc5[nH]ncc5c4)n3)cc2[nH]1)N1CCC2(CCNCC2)CC1 [TDI01360, (6-(4-((1H-indazol-5-yl)amino)-pyrimidin-2-yl)-1H-indol-2-yl)(3.9-diazaspiro[5.5]undecan-3-yl)methanone]
> 10000	42	COCc1cnc(-c2ccc3cc(C(=O)N4CC(F)(F)C4)n(C)c3c2)nc1Nc1ccc(-c2cn[nH]c2)cc1 [TDI01668, (6-(4-((4-(1H-pyrazol-4-yl)phenyl)amino)-5-(methoxymethyl)pyrimidin-2-yl)-1-methyl-1H-indol-2-yl)(3,3-difluoroazetidin-1-yl)methanone]
> 10000	28	O=C(Nc1ccncc1F)c1cc2ccc(-c3nccc(Nc4ccc5[nH]ncc5c4)n3)cc2[nH]1 [TDI01394, 6-(4-((1H-indazol-5-yl)amino)pyrimidin-2-yl)-N-(3-fluoropyridin-4-yl)-1H-indole-2-carboxamide]
> 10000	170	O=C(OCc1ccccc1)N1Cc2ccc(-c3nccc(Nc4ccc(-c5cn[nH]c5)cc4)n3)cc2C1 [TDI01559, benzyl 5-(4-((4-(1H-pyrazol-4-yl)phenyl)amino)pyrimidin-2-yl)isoindolin-2-carboxylate]
> 10000	385	CN(C(=O)c1cc2ccc(-c3nccc(Nc4ccc(-c5cn[nH]c5)cc4)n3)cc2[nH]1)C1CCOC1 (centres unmarked) [TDI01419, 6-(4-((4-(1H-pyrazol-4-yl)phenyl)amino)pyrimidin-2-yl)-N-methyl-N-(tetrahydrofuran-3-yl)-1H-indole-2-carboxamide]
> 10000	84	O=C(c1cc2ccc(-c3ncc(F)c(Nc4ccc(-c5cn[nH]c5)cc4)n3)cc2s1)N1CC(F)(F)C1 [TDI01675, (6-(4-((4-(1H-pyrazol-4-yl)phenyl)-amino)-5-fluoro-pyrimidin-2-yl)benzo[b]-thiophen-2-yl)(3,3-difluoroazetidin-1-yl)methanone]
